# Experimental data reported in article PMC11669939, “Impairing protein–protein interactions in an essential tRNA modification complex: An innovative antimicrobial strategy against Pseudomonas aeruginosa” (Journal of Peptide Science, 2024).
# Columns and labels:
# [1] = test system: Escherichia coli K‐12 MG1655; assay: Bacterial growth inhibition assay, E. coli MG1655; type: cell-based; conditions: 3, 10, 30 μM; Mueller Hinton Broth, 37°C, OD595 every 15 min; mean of three independent experiments
# Description: (§1) Growth inhibition experiments were performed with P. aeruginosa PAO1 strain[37] and Escherichia coli K‐12 MG1655.[38] Cells were grown overnight in 10 ml of LB medium at 37°C with shaking. Overnight cultures were washed twice with phosphate‐buffered saline (PBS) and inoculated to an optical density at 595 nm (OD595) of 0.05 in 10 ml of Mueller Hinton Broth (Sigma‐Aldrich). Aliquots (200 μl) of inoculated medium were distributed in triplicate (technical replicates) in a 96‐Well Cellstar® suspension culture plate (Greiner Bio‐One) and incubated in a Sunrise microplate reader (Tecan Group) at 37°C with constant orbital shaking and real‐time OD595 measurements every 15 min. Three final peptide concentrations were tested: 3, 10, and 30 μM, respectively. Controls were made by adding sterilized water, in the same amount of the added peptide volumes. Three independent replicates were performed. Data were reported by plotting, at each time point, the mean OD595 values of the three replicates with error bars indicating Standard Error of Mean (SEM).
# [2] = cited from earlier work
# Excerpt: P. aeruginosa (PAE) is a Gram‐negative bacterium that has been ranked by WHO as one out of three pathogens with the highest global priority for the development of novel effective antibacterials.[17] PAE is a major cause of both acute and chronic lung infections, which develop in up to 60%–70% of cystic fibrosis (CF) patients, often leading to a more rapid decline of lung function that turns into greater morbidity and mortality.[18], [19], [20] The misuse of classical antibiotics, whose mechanism of action is usually based on the interaction with a well‐defined ligand binding site, led to an ev ... || These observations supported our hypothesis that PMP1 should be able to bind to YeaZ and consequently reduce its ability to form protein complexes, thus impairing its function. […] Indeed, the PMP2 peptide derives from the PMP1 sequence RIAIGVVQGLAFAL (Arg73‐Leu86) and thus contains the four hot ...
# YeaZ [3] = assay: Intrinsic tryptophan fluorescence (ITF) binding assay; set-up: species or system Pseudomonas aeruginosa
# Description: (§2) Briefly, the YeaZ protein was produced in E. coli M15[pREP4] strain using a pQE30‐PaYeaZ plasmid. Cells were grown in LB medium at 37°C till the OD600 reached 0.6, then the protein expression was induced by isopropyl‐β‐D‐thiogalactoside (IPTG) at a final concentration of 0.1 mM for 5 h at 30°C. After cell collection, the pellet was resuspended in a lysis buffer containing 50 mM phosphate buffer, 150 mM NaCl, and 10 mM imidazole, pH 7.4. Cells were subsequently disrupted by a French press disruptor (20 bar pressure), and one tablet of protease inhibitor (Roche), 10 mg/ml DNase I, and 5 mg/ml Ribonuclease A were added to the solution. After centrifugation at 18,000 rpm for 45 min, the supernatant was collected, filtered, and loaded onto a Ni‐NTA Superflow (GE Healthcare Life Science). YeaZ was further purified using a Superdex 75 gel filtration column (GE Healthcare Life Science) in buffer 50 mM Hepes pH 7.4, 150 mM NaCl at a concentration of 0.5 mg/ml, in which freshly purified protein exists as a monomer in solution, and stored at −80°C.
# Spectrofluorometric assays were performed on a Varian Cary Eclipse fluorescence spectrophotometer (Agilent Technologies) at 20°C. YeaZ was used at a final concentration of 0.065 mg/ml in buffer Hepes 50 mM pH 7.4, NaCl 500 mM, 10% glycerol (with 2% v/v DMSO as control), while the peptides were used at a final concentration of 200 μM. We used an excitation wavelength of 280 nm and registered the fluorescence emission spectra between 300 and 400 nm. Measures were performed in triplicates.
# To evaluate the binding of PMP2 in vitro, the recombinant His‐tagged YeaZ protein from PAE PAO1 was produced in E. coli and purified with final purity and yield values adequate for the binding studies. Compound PMP2 was dissolved to 10mM with 100% DMSO and tested in in vitro assays at a final concentration of 200 μM (corresponding to a DMSO concentration of 2%). The interaction with the protein was first evaluated by exploiting the intrinsic fluorescence of the tryptophan residues (ITF) contained in the protein's amino acid sequence. […] Analytical size exclusion chromatography (SEC) was then run to evaluate the peptide's ability to disrupt or interfere with the formation of the homodimers. The YeaZ protein alone eluted at a volume corresponding mainly to its dimeric form (estimated molecular weight of 51 kDa of the main peak) and the effect of 2% v/v DMSO was irrelevant.
# (§3) PMP3 was then dissolved to 1mM in MilliQ water and evaluated in vitro in ITF assays. […] To further investigate the binding with PMP3, we performed a concentration‐response curve increasing the amounts of peptide. […] We thus performed an MST assay exploiting the perturbation of thermal diffusion at 650 nm plotted against the peptide concentration. The MO.
# [4] = Solubility, hydrophobicity and aggregation of the peptides; type: physicochemical
# [5] = previous work; cited from earlier work
# Excerpt: Since the PPIs and hot spots involved in the PAE YeaZ homodimer are conserved in the YeaZ/YgjD heterodimer,[21], [25], [26] we hypothesized that PMP1 might also represent a good starting point to target the YeaZ/YgjD interface. In this work, we report our studies focused on the PPIs involved in the formation of the TC‐complex and their possible inhibition by PMP1 derivatives. The final aim was the interference of t^6A37 biosynthesis and, consequently, the achievement of bacterial growth impairment.
# P. aeruginosa PAO1 = assay: Bacterial growth inhibition assay, P. aeruginosa PAO1; type: cell-based, Pseudomonas aeruginosa; conditions: 3, 10, 30 μM; Mueller Hinton Broth, 37°C, OD595 every 15 min; mean of three independent experiments
# Description: as §1
# YeaZ homodimer = assay: Analytical size exclusion chromatography (SEC); type: binding, Pseudomonas aeruginosa; conditions: peptide 200 μM, 2% DMSO, YeaZ 0.5 mg/ml
# Description: as §2, with “YeaZ was further purified using a Superdex 75 gel filtration column (GE Healthcare Life Science) in buffer 50 mM Hepes pH 7.4, 150 mM NaCl at a concentration of 0.5 mg/ml, in which freshly purified protein exists as a monomer in solution, and stored at −80°C.” left out
# To evaluate the binding of PMP2 in vitro, the recombinant His‐tagged YeaZ protein from PAE PAO1 was produced in E. coli and purified with final purity and yield values adequate for the binding studies. […] The interaction with the protein was first evaluated by exploiting the intrinsic fluorescence of the tryptophan residues (ITF) contained in the protein's amino acid sequence. […]
# YeaZ [6] = assay: Microscale thermophoresis (MST) assay; type: binding, Pseudomonas aeruginosa; conditions: 50 nM RED‐NHS labeled YeaZ, Hepes 50 mM pH 7.4, NaCl 500 mM, 10% glycerol, 0.05% Tween20, 24°C, 650 nm, triplicates; saturation plateau not reached, precise value not calculable
# Description: Microscale thermophoresis (MST) experiments were performed using a Monolith X apparatus (NanoTemper Technologies GmbH, Munich, Germany) and analyzed with the MO. Affinity Analysis software (NanoTemper Technologies GmbH). Briefly, YeaZ was labeled with the red fluorescent dye RED‐NHS 2° generation according to manufacturer instructions. MST measurements were performed in triplicates at 24°C on in Hepes 50 mM pH 7.4, NaCl 500 mM, 10% glycerol, and 0.05% Tween20, using premium‐treated glass capillaries and at a fixed concentration of 50 nM YeaZ. Results were merged and analyzed.
# as §3
# [7] = Circular dichroism analysis; type: physicochemical; conditions: 20 μM, 20°C
# Description: CD spectra were acquired on a JASCO J‐715 spectropolarimeter in a 1‐mm quartz cuvette, under N2, between 260 and 185 nm, at 20°C with 0.5 nm intervals, and 3 measurements were accumulated (settings: 100 mdeg sensitivity, continuous scan mode, 50 nm/min scan speed, 2 s response, bandwidth 1.0 nm). The resulting signal was converted from ellipticity (mdeg) to molar ellipticity [Q] in deg · cm^2 · dmol^−1. Peptides were solubilized in 100% MilliQ water or 1:1 water/TFE at 20 μM concentration. The helical propensity [R] was calculated using the R‐value, i.e. the ratio between molar ellipticity values at 222 and 207 nm, where R = 1 is defined as a reference for an ideal α‐helix.
# [8] = molecular target: YeaZ protein from P. aeruginosa PAO1, recombinant His-tagged (P. aeruginosa PAO1); assay: SEC; analytical, Superdex75 Increase 10/300 GL, Hepes 50 mM pH 7.4, NaCl 500 mM, 10% glycerol; YeaZ 0.5 mg/ml (2% DMSO as control); peptide at 200 μM
substance,measurement,setting,value
AIAIGVVQGLAFAL‐GG‐KKKG [PMP2],growth inhibition of E. coli MG1655,[1],no effect of growth inhibition could be observed
same,self‐assembly,[2]; by fine‐tuning of the environmental conditions,capable of self‐assembling in helical nanofibers and 2D sheets as well as forming hydrogels
same,fluorescence emission of YeaZ in presence of peptide (ITF),"YeaZ [3]; peptide 200 μM, 2% DMSO, YeaZ 0.065 mg/ml, Hepes 50 mM pH 7.4, NaCl 500 mM, 10% glycerol, 20°C, excitation 280 nm, emission 300-400 nm, triplicates",decreased fluorescence emission spectrum compared to the protein alone
same,solubility,"[4]; any tested solvent (H2O, 100% DMSO, 10 mM NaOH)",poor solubility
same,aggregation,"[4]; in solution at higher concentrations, prevented evaluation of a dose–response constant",formation of aggregates in solution at higher concentrations
same,helicity outside the protein environment,[5],maintain helicity outside the protein environment
same,growth inhibition of PAE PAO1,P. aeruginosa PAO1,no effect of growth inhibition could be observed
same,estimated molecular weight of the YeaZ dimeric peak (SEC),"YeaZ homodimer; Hepes 50 mM pH 7.4, NaCl 500 mM, 10% glycerol, Superdex75 Increase 10/300, YeaZ alone 51 kDa",49 kDa
same,effect on the YeaZ dimeric peak (SEC),YeaZ homodimer; pH 7.4,slight shift of the dimeric peak towards a smaller molecular weight
AIAIGVVQGLAFAL‐GG‐[R‐Ahx‐R]4‐Ahx‐β‐Ala [PMP3],growth inhibition of E. coli MG1655,[1],much weaker than those observed for PAO1
same,Kd (MST),YeaZ [6],low micromolar
same,secondary structure by CD,[7]; 1:1 water/TFE,a clear α‐helix conformation was observed
same,secondary structure by CD,[7]; 100% MilliQ water,did not show any particular secondary structure
same,helical propensity R,"[7]; ratio of molar ellipticity at 222 and 207 nm (R = 1 ideal α‐helix), 1:1 water/TFE",0.78
same,intrinsic fluorescence of the peptide,"YeaZ [3]; above a concentration threshold, at 310–340 nm, prevented concentration‐response evaluation",higher than the intrinsic fluorescence of the YeaZ protein
same,fluorescence intensity of YeaZ in presence of peptide (ITF),"YeaZ [3]; peptide 200 μM, from 1mM in MilliQ water, YeaZ 0.065 mg/ml, Hepes 50 mM pH 7.4, NaCl 500 mM, 10% glycerol, 20°C, excitation 280 nm, triplicates",reduction of the fluorescence intensity
same,"shift of emission towards shorter wavelengths (ITF), wavelength","YeaZ [3]; peptide 200 μM, from 1mM in MilliQ water, YeaZ 0.065 mg/ml, pH 7.4, 20°C, slight shift",around 330 nm
same,growth inhibition of PAE PAO1,P. aeruginosa PAO1,significant concentration‐dependent decrease in the growth rates
"YeaZ protein from P. aeruginosa PAO1, recombinant His-tagged (from UniProt A0A0H2ZEW0 1-226) (natural protein)",stoichiometry N,[8],2
AIAIGVVQGLAFAL [PMP1],hydrophobicity,[2],too hydrophobic
